Assay results: the supplement of paper PMC6335503

Legend:
Test in all cases: cell viability, percent of DMSO control (CellTiter-Glo); higher = more viable cells
Details in all cases: 72 h
[1] = tested on: DFTD cell line T3 (06/0368)
Experimental: (§1)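 Eight-point dose titration of 41 screen hits in triplicate wells on four Tasmanian devil DFTD tumour cell lines (T1-T4) and devil fibroblasts, 384-well plates. Viability was read by CellTiter-Glo (ATP) after 72 h at 37 °C. Percent of control per plate: DMSO wells = 100%, positive-control wells = 0%.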

[2] = tested on: DFTD cell line T1 (06/2887)
Experimental: as §1

[3] = tested on: DFTD cell line T4 (07/0192)
Experimental: as §1

[4] = tested on: DFTD cell line T2 (05/2569)
Experimental: as §1

CN(C)C/C=C/C(=O)Nc1cc2c(Nc3ccc(F)c(Cl)c3)ncnc2cc1O[C@H]1CCOC1 [Afatinib (BIBW2992)]
cell viability [%]
Details	0.00617 µM	0.0185 µM	0.0556 µM	0.166667 µM	0.5 µM	1.5 µM	4.5 µM	13.5 µM
[1]	105	84.4	50.4	34	31.7	31.5	24	6.87
[2]	102	58.8	29	19	24.5	18.8	4.12	1.43
[3]	98.9	81.1	46.3	18.2	13.9	18.8	5.93	1.47
[4]	112	89.2	72.7	39.8	43.4	33.4	30.8	5.92

C=CC(=O)Nc1cc2c(Nc3ccc(F)c(Cl)c3)ncnc2cc1OCCCN1CCOCC1 [Canertinib (CI-1033)]
cell viability [%]
Details	0.00617 µM	0.0185 µM	0.0556 µM	0.166667 µM	0.5 µM	1.5 µM	4.5 µM	13.5 µM
[1]	92.6	110	113	110	89	49.7	32.5	38.9
[2]	118	106	109	98.1	42.6	18.3	18.2	8.82
[3]	104	107	107	107	86.1	39.8	24	21
[4]	120	106	116	98	91.1	33.5	33.7	13.8

Nc1ccc(F)cc1NC(=O)c1ccc(CNC(=O)/C=C/c2cccnc2)cc1 [Chidamide]
cell viability [%]
Details	0.0309 µM	0.0926 µM	0.277778 µM	0.833333 µM	2.5 µM	7.5 µM	22.5 µM	67.5 µM
[1]	102	78.9	56.3	39	18.9	18.2	14.3	11.1
[2]	111	97.4	38.5	28.7	9.38	-0.502	13.2	18.1
[3]	112	101	83	48.5	22.2	19.1	15.3	20.2
[4]	102	79.7	69.8	29.6	11.9	9.75	7.82	9.23

CC1(C)CC(=O)C2=C(C1)NC(=S)NC2c1cccc(O)c1 (stereo not given) [Dimethylenastron]
cell viability [%]
Details	0.00617 µM	0.0185 µM	0.0556 µM	0.166667 µM	0.5 µM	1.5 µM	4.5 µM	13.5 µM
[1]	101	119	102	110	108	94.4	103	86.2
[2]	113	126	115	102	70.9	50.1	42.5	33.8
[3]	118	92.6	106	105	93.9	81.3	62.2	61.7
[4]	107	130	117	104	92.3	79.2	73.7	71.3

COc1cccc2c1C(=O)c1c(O)c3c(c(O)c1C2=O)C[C@@](O)(C(=O)CO)C[C@@H]3O[C@H]1C[C@H](N)[C@H](O)[C@H](C)O1 [Doxorubicin]
cell viability [%]
Details	0.00617 µM	0.0185 µM	0.0556 µM	0.166667 µM	0.5 µM	1.5 µM	4.5 µM	13.5 µM
[1]	112	96.6	98.6	77	66.5	21.6	-3.26	4.78
[2]	109	105	104	85.8	61.2	2.77	-6.73	-3.65
[3]	104	106	96.8	84.9	53.4	2.44	-5.87	-5.47
[4]	108	98.7	96.5	88.7	64.5	13.4	-8.33	-4.69

C#Cc1cccc(Nc2ncnc3cc(OCCOC)c(OCCOC)cc23)c1.Cl [Erlotinib hydrochloride]
cell viability [%]
Details	0.00617 µM	0.0185 µM	0.0556 µM	0.166667 µM	0.5 µM	1.5 µM	4.5 µM	13.5 µM
[1]	121	105	122	93.5	87.4	60.8	47.1	30.7
[2]	138	126	104	87.3	86.4	38.1	29.1	14.2
[3]	117	114	119	99.9	104	61.7	47.2	19.7
[4]	124	142	118	90.4	98.83	56.3	33.7	18.2

C#Cc1cccc(Nc2ncnc3cc(OCCOC)c(OCCOC)cc23)c1 [Erlotinib]
cell viability [%]
Details	0.0123 µM	0.037 µM	0.111111111 µM	0.333333 µM	1 µM	3 µM	9 µM	27 µM
[1]	101	108	99.9	81.5	68.8	49.3	33.1	40.5
[2]	108	104	113	101	57.3	35.3	19.8	17
[3]	88.3	115	117	79.3	85.1	43.3	24.4	22
[4]	104	80.4	102	89.2	72.1	46.1	24.3	34.5

COc1cc2c(cc1-c1c(C)noc1C)ncc1[nH]c(=O)n([C@H](C)c3ccccn3)c12 [I-BET151]
cell viability [%]
Details	0.0309 µM	0.0926 µM	0.277778 µM	0.833333 µM	2.5 µM	7.5 µM	22.5 µM	67.5 µM
[1]	102	106	117	64.5	47.6	35.1	36.6	45.2
[2]	119	126	92.8	31.3	28.6	16.7	23	37.9
[3]	87.7	107	87.5	47.8	49.6	38.9	42.9	53
[4]	95.3	120	141	81.4	50.3	21.1	22.3	32.5

Cc1cc(Nc2ncnc3ccc(NC4=NC(C)(C)CO4)cc23)ccc1Oc1ccn2ncnc2c1 [Irbinitinib(ARRY-380; ONT-380)]
cell viability [%]
Details	0.00617 µM	0.0185 µM	0.0556 µM	0.166667 µM	0.5 µM	1.5 µM	4.5 µM	13.5 µM
[1]	112	116	111	98.9	67.1	54.9	45.3	48.6
[2]	113	111	94.9	89.7	41.5	30.3	33	33.4
[3]	106	109	105	92.6	60.1	46.2	43.5	36.6
[4]	102	90.6	98.1	95.7	65.7	45.7	50.6	42.5

CS(=O)(=O)CCNCc1ccc(-c2ccc3ncnc(Nc4ccc(OCc5cccc(F)c5)c(Cl)c4)c3c2)o1.Cc1ccc(S(=O)(=O)O)cc1.Cc1ccc(S(=O)(=O)O)cc1.O [Lapatinib ditosylate monohydrate]
cell viability [%]
Details	0.00617 µM	0.0185 µM	0.0556 µM	0.166667 µM	0.5 µM	1.5 µM	4.5 µM	13.5 µM
[1]	104	94.6	92.3	85.4	69.8	38.4	48.1	34
[2]	107	96.9	92.2	59.3	38.8	27.7	31.9	17.9
[3]	98.9	94	94.6	68.7	60.1	29.7	38.5	24.5
[4]	100	88.5	87.2	74.9	58.2	41.5	40.8	24.9

CS(=O)(=O)CCNCc1ccc(-c2ccc3ncnc(Nc4ccc(OCc5cccc(F)c5)c(Cl)c4)c3c2)o1 [Lapatinib]
cell viability [%]
Details	0.0123 µM	0.037 µM	0.111111111 µM	0.333333 µM	1 µM	3 µM	9 µM	27 µM
[1]	80.9	110	84.9	70.4	42.1	44.9	31.7	5.72
[2]	87.5	112	87.1	42.6	30.1	28.2	21.2	12.5
[3]	81.5	113	84.5	53	32	29.4	20.7	16.9
[4]	78.4	133	100	68.6	40.4	44.6	21.6	8.25

C=CC(=O)Nc1cc(Nc2ncc(Cl)c(-c3c[nH]c4ccccc34)n2)c(OC)cc1N(C)CCN(C)C [Mutant EGFR inhibitor]
cell viability [%]
Details	0.00617 µM	0.0185 µM	0.0556 µM	0.166667 µM	0.5 µM	1.5 µM	4.5 µM	13.5 µM
[1]	87	93	86.5	39.6	38.2	22	12.8	26.6
[2]	94.7	83.8	62.6	29.1	26.6	9.39	1.63	7.99
[3]	75.6	86.8	89	35.9	20.9	6.23	3.77	19.9
[4]	98.2	93.9	94.8	50.8	37.3	16.6	5.63	11.5

CCOc1cc2ncc(C#N)c(Nc3ccc(OCc4ccccn4)c(Cl)c3)c2cc1NC(=O)/C=C/CN(C)C [Neratinib(HKI-272)]
cell viability [%]
Details	0.00617 µM	0.0185 µM	0.0556 µM	0.166667 µM	0.5 µM	1.5 µM	4.5 µM	13.5 µM
[1]	92	102	119	96.1	92.2	39.8	42.4	36.5
[2]	97.8	92.2	125	90.5	50.7	29	29.2	32.5
[3]	99.8	88.3	114	93.5	62.4	22.9	25.4	18.8
[4]	97	98	154	119	93.3	45.2	45.7	39.1

Cc1sc2c(c1C)C(c1ccc(Cl)cc1)=N[C@@H](CC(=O)Nc1ccc(O)cc1)c1nnc(C)n1-2 [OTX015]
cell viability [%]
Details	0.0123 µM	0.037 µM	0.111111111 µM	0.333333 µM	1 µM	3 µM	9 µM	27 µM
[1]	104	120	84.2	79.8	57.3	50.5	46.8	54.8
[2]	103	100	74.2	59.1	31.2	36	30.2	36.9
[3]	93.3	85.1	69.9	72.7	51.1	55.9	47.1	56.2
[4]	105	128	97.9	104	70.1	44.1	36.1	45.3

CCOc1cc2ncc(C#N)c(Nc3ccc(F)c(Cl)c3)c2cc1NC(=O)/C=C/CN(C)C [Pelitinib (EKB-569)]
cell viability [%]
Details	0.00617 µM	0.0185 µM	0.0556 µM	0.166667 µM	0.5 µM	1.5 µM	4.5 µM	13.5 µM
[1]	81.3	125	103	76.4	58.9	39.5	33.4	36.2
[2]	82.1	115	93.5	76.8	22	30.3	34.1	-2.36
[3]	83	113	97.4	77.8	53.1	18.3	19.6	22.1
[4]	79.7	121	111	98.2	42.1	42.4	33.2	8.16
